Reference: patent US10758534B2 (Vertex Pharmaceuticals Incorporated, priority 2014, dated 2020)
Read-outs that look alike come from different tables or passages of the source.

Target: T1, F508del (Homo sapiens, UniProt P13569, DEL508-508)
T1 construct: expressed in transfected cells
Test: Protocol 2: FRET membrane potential optical assay (VIPR), identification of correction compounds
Format: cell-based
Summary of the method: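 Correction of the F508del trafficking defect is scored as forskolin (10 μM)/genistein (20 μM)-stimulated Cl^− efflux in NIH3T3 mouse fibroblasts after a 16 hr, 37° C. compound exposure. Depolarization was followed optically using voltage-sensing FRET dyes.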

[1] = F508del CFTR modulator activity, compounds of Table 1, read-out: EC30
[2] = Table 3, compounds of Table 1 as modulators of CFTR activity, protocol not stated

T1 sequence (P13569 with tags, fused parts or gaps DEL508-508): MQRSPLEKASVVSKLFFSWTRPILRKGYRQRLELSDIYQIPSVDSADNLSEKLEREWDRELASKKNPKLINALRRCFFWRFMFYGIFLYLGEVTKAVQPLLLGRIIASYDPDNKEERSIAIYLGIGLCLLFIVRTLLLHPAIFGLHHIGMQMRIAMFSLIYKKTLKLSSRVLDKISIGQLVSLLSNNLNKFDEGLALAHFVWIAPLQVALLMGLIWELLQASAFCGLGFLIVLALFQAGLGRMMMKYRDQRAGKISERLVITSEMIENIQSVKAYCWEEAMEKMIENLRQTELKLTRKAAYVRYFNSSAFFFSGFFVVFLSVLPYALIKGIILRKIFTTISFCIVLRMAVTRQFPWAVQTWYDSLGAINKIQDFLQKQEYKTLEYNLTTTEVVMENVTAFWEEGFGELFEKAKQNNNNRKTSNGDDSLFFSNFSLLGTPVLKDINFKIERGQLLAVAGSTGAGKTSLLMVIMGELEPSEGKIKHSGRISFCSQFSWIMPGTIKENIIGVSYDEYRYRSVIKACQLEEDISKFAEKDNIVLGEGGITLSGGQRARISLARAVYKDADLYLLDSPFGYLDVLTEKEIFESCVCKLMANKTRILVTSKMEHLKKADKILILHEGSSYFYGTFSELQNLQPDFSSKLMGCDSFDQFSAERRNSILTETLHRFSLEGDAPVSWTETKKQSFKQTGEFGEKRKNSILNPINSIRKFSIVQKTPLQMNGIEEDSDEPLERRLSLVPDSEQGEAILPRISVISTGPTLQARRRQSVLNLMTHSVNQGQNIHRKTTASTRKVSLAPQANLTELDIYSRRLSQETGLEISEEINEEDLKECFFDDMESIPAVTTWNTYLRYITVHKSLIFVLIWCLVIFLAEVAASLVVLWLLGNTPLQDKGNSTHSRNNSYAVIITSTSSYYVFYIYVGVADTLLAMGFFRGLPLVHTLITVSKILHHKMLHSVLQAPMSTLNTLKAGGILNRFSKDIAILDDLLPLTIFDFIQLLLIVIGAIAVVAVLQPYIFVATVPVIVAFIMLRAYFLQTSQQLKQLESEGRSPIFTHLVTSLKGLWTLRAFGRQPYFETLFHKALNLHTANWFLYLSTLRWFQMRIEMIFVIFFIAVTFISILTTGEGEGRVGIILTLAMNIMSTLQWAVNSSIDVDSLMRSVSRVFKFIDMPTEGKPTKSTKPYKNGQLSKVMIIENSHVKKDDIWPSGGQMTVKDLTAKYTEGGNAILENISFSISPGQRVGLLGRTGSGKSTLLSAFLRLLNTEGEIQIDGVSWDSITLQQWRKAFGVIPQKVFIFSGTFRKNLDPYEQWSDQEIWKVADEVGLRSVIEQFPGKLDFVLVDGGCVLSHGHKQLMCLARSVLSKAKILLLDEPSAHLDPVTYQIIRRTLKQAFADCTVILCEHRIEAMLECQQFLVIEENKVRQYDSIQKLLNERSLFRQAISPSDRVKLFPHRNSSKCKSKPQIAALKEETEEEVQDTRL

EC30 [1]	EC30 [2]	Compound
< 3000 nM	–	CC1CN(c2ncccc2C(=O)NS(=O)(=O)c2cccc(NC3CCCCC3C)n2)C(C)(C)C1 (stereo not drawn) [Compound 2218, N—[[6-[(2-methylcyclohexyl)amino]-2-pyridyl]sulfonyl]-2-(2,2,4-trimethylpyrrolidin-1-yl)pyridine-3-carboxamide]
–	+++ (“+++” means <3 uM)	Cc1cc(C)c(CN2C(C(=O)NS(=O)(=O)c3ccc(C)c(N)c3)c3ccccc3C2(C)C)c(C)c1 (stereo not drawn) [Compound 448, N-(3-amino-4-methyl-phenyl)sulfonyl-3,3-dimethyl-2-[(2,4,6-trimethylphenyl)methyl]isoindoline-1-carboxamide]
–	+++ (“+++” means <3 uM)	Cc1cc(C)c(Oc2nc3ccccc3cc2C(=O)NS(=O)(=O)c2ccccc2)c(C)c1 [Compound 215, N-(benzenesulfonyl)-2-(2,4,6-trimethylphenoxy)quinoline-3-carboxamide]
< 3000 nM	–	Cc1cc(F)cc(-c2ccc(C(=O)NS(=O)(=O)c3cccc(N)n3)c(N3C[C@@H](C)CC3(C)C)n2)c1 [Compound 2638, N-[(6-amino-2-pyridyl)sulfonyl]-6-(3-fluoro-5-methyl-phenyl)-2-[(4S)-2,2,4-trimethylpyrrolidin-1-yl]pyridine-3-carboxamide]
< 3000 nM	–	C[C@@H]1CN(c2nc(-n3ccc(-c4ccccc4)n3)ccc2C(=O)NS(=O)(=O)C2CC2)C(C)(C)C1 [Compound 2674, N-cyclopropylsulfonyl-6-(3-phenylpyrazol-1-yl)-2-[(4S)-2,2,4-trimethylpyrrolidin-1-yl]pyridine-3-carboxamide]
–	+++ (“+++” means <3 uM)	C[C@H](COCc1ccccc1)Oc1ccc(-c2ccc(C(=O)NS(=O)(=O)c3cccc(N)n3)c(N3[C@H](C)CC[C@@H]3C)n2)cn1 [Compound 576, N-[(6-amino-2-pyridyl)sulfonyl]-6-[6-[(1R)-2-benzyloxy-1-methyl-ethoxy]-3-pyridyl]-2-[(2S,5R)-2,5-dimethylpyrrolidin-1-yl]pyridine-3-carboxamide]
< 3000 nM	–	COc1ccc(-c2ccc(C(=O)NS(=O)(=O)c3cccnc3N)c(N3C[C@@H](C)CC3(C)C)n2)cc1 [Compound 2667, N-[(2-amino-3-pyridyl)sulfonyl]-6-(4-methoxyphenyl)-2-[(4S)-2,2,4-trimethylpyrrolidin-1-yl]pyridine-3-carboxamide]
< 3000 nM	–	CC(C)CC/C=C/c1cnc(N2CC(C)CC2(C)C)c(C(=O)NS(=O)(=O)c2cccc(N)n2)c1 (stereo not drawn) [Compound 2647, N-[(6-amino-2-pyridyl)sulfonyl]-5-[(E)-5-methylhex-1-enyl]-2-(2,2,4-trimethylpyrrolidin-1-yl)pyridine-3-carboxamide]
< 3000 nM	–	COc1ccccc1Oc1cccc(S(=O)(=O)NC(=O)c2cccnc2N2CC(C)CC2(C)C)n1 (stereo not drawn) [Compound 2637, N—[[6-(2-methoxyphenoxy)-2-pyridyl]sulfonyl]-2-(2,2,4-trimethylpyrrolidin-1-yl)pyridine-3-carboxamide]
< 3000 nM	–	COc1cccc(-c2ccc(C(=O)NS(=O)(=O)c3cccnc3N)c(N3C[C@@H](C)CC3(C)C)n2)c1F [Compound 2562, N-[(2-amino-3-pyridyl)sulfonyl]-6-(2-fluoro-3-methoxy-phenyl)-2-[(4S)-2,2,4-trimethylpyrrolidin-1-yl]pyridine-3-carboxamide]
3000 to 10000 nM	–	Cc1ccn(CCCNc2cccc(S(=O)(=O)NC(=O)c3cccnc3N3CC(C)CC3(C)C)n2)n1 (stereo not drawn) [Compound 2550, N—[[6-[3-(3-methylpyrazol-1-yl)propylamino]-2-pyridyl]sulfonyl]-2-(2,2,4-trimethylpyrrolidin-1-yl)pyridine-3-carboxamide]
< 3000 nM	–	Cc1ccc(-c2ccc(C(=O)NS(=O)(=O)c3cccnc3N)c(N3C[C@@H](C)CC3(C)C)n2)c2ccccc12 [Compound 2126, N-[(2-amino-3-pyridyl)sulfonyl]-6-(4-methyl-1-naphthyl)-2-[(4S)-2,2,4-trimethylpyrrolidin-1-yl]pyridine-3-carboxamide]
–	++ (“++” means between 3 uM and 10 uM)	Cc1ccc(-c2nc(C(C)(C)C)ccc2C(=O)NS(=O)(=O)c2ccc(N)nc2)cc1 [Compound 702, N-[(6-amino-3-pyridyl)sulfonyl]-6-tert-butyl-2-(p-tolyl)pyridine-3-carboxamide]
< 3000 nM	–	CC1CN(c2ncccc2C(=O)NS(=O)(=O)c2cccc(Oc3cc(Cl)ccc3F)n2)C(C)(C)C1 (stereo not drawn) [Compound 2598, N—[[6-(5-chloro-2-fluoro-phenoxy)-2-pyridyl]sulfonyl]-2-(2,2,4-trimethylpyrrolidin-1-yl)pyridine-3-carboxamide]
< 3000 nM	–	C[C@@H]1CN(c2nc(C(C)(C)C)c([C@@H](O)[C@H](O)C3CCCC3)cc2C(=O)NS(=O)(=O)c2cccc(N)n2)C(C)(C)C1 (single isomer, unassigned) [Compound 2069]
< 3000 nM	–	COc1cc(-c2ccc(C(=O)NS(=O)(=O)c3cccnc3N)c(N3C[C@@H](C)CC3(C)C)n2)ccc1C [Compound 2379, N-[(2-amino-3-pyridyl)sulfonyl]-6-(3-methoxy-4-methyl-phenyl)-2-[(4S)-2,2,4-trimethylpyrrolidin-1-yl]pyridine-3-carboxamide]
–	++ (“++” means between 3 uM and 10 uM)	Cc1cc(C)c(Cn2nc(C(C)(C)C)cc2C(=O)NS(=O)(=O)c2cccc(CO)c2)c(C)c1 [Compound 39, 5-tert-butyl-N-[3-(hydroxymethyl)phenyl]sulfonyl-2-[(2,4,6-trimethylphenyl)methyl]pyrazole-3-carboxamide]
3000 to 10000 nM	–	Cc1nn(C)c(C)c1-c1ccc(C(=O)NS(=O)(=O)c2cccnc2N)c(N2C[C@@H](C)CC2(C)C)n1 [Compound 2668, N-[(2-amino-3-pyridyl)sulfonyl]-6-(1,3,5-trimethylpyrazol-4-yl)-2-[(4S)-2,2,4-trimethylpyrrolidin-1-yl]pyridine-3-carboxamide]
–	+++ (“+++” means <3 uM)	Cc1ccc(-c2ccc(C(=O)NS(=O)(=O)c3cc[nH]n3)c(Oc3ccc(C)cc3C)n2)cc1 [Compound 610, 2-(2,4-dimethylphenoxy)-6-(p-tolyl)-N-(1H-pyrazol-3-ylsulfonyl)pyridine-3-carboxamide]
–	++ (“++” means between 3 uM and 10 uM)	Cc1cc(C)c(Cn2c(C(=O)NS(=O)(=O)c3cccc(N)c3)c(C)c3ccccc32)c(C)c1 [Compound 118, N-(3-aminophenyl)sulfonyl-3-methyl-1-[(2,4,6-trimethylphenyl)methyl]indole-2-carboxamide]
< 3000 nM	–	CC1CN(c2ncccc2C(=O)NS(=O)(=O)c2cccc(OCC(C)C3CCCCC3)n2)C(C)(C)C1 (stereo not drawn) [Compound 2019, N—[[6-(2-cyclohexylpropoxy)-2-pyridyl]sulfonyl]-2-(2,2,4-trimethylpyrrolidin-1-yl)pyridine-3-carboxamide]
–	+++ (“+++” means <3 uM)	COc1ncc(-c2ccc(C(=O)NS(=O)(=O)c3cccc(N)n3)c(Oc3c(C)cc(C)cc3C)n2)cc1C [Compound 705, N-[(6-amino-2-pyridyl)sulfonyl]-6-(6-methoxy-5-methyl-3-pyridyl)-2-(2,4,6-trimethylphenoxy)pyridine-3-carboxamide]
< 3000 nM	–	CC1CN(c2ncccc2C(=O)NS(=O)(=O)c2cccc(N(C)CC3CC3)n2)C(C)(C)C1 (stereo not drawn) [Compound 2044, N—[[6-[cyclopropylmethyl(methyl)amino]-2-pyridyl]sulfonyl]-2-(2,2,4-trimethylpyrrolidin-1-yl)pyridine-3-carboxamide]
–	+++ (“+++” means <3 uM)	CC(C)Oc1ccc(-c2ccc(C(=O)NS(=O)(=O)c3cccc(N)n3)c(N3CCC(c4ccccc4)CC3)n2)cn1 [Compound 742, N-[(6-amino-2-pyridyl)sulfonyl]-6-(6-isopropoxy-3-pyridyl)-2-(4-phenyl-1-piperidyl)pyridine-3-carboxamide]
–	+++ (“+++” means <3 uM)	COc1ncccc1S(=O)(=O)NC(=O)C1c2cccc(-c3ccccc3)c2CN1Cc1c(C)cc(C)cc1C (stereo not drawn) [Compound 427, N-[(2-methoxy-3-pyridyl)sulfonyl]-4-phenyl-2-[(2,4,6-trimethylphenyl)methyl]isoindoline-1-carboxamide]

Compound	EC30 [1]	EC30 [2]
Cc1ccc(-c2nc(-c3cc(F)cc(OCC(C)C)c3)ccc2C(=O)NS(=O)(=O)N2CC[C@@H](N)C2)cc1 [Compound 2276, N-[(3R)-3-aminopyrrolidin-1-yl]sulfonyl-6-(3-fluoro-5-isobutoxy-phenyl)-2-(p-tolyl)pyridine-3-carboxamide]	< 3000 nM	–
CC(C)COc1cc(F)cc(-c2cc(N3C[C@@H](C)CC3(C)C)c(C(=O)NS(=O)(=O)c3cccc(N)n3)cn2)c1 [Compound 2679, N-[(6-amino-2-pyridyl)sulfonyl]-6-(3-fluoro-5-isobutoxy-phenyl)-4-[(4S)-2,2,4-trimethylpyrrolidin-1-yl]pyridine-3-carboxamide]	3000 to 10000 nM	–
CC(C)COc1cc(F)cc(-c2ccc(C(=O)NS(=O)(=O)c3cccc4[nH]ccc34)c(N3CC(C)CC3(C)C)n2)c1 (stereo not drawn) [Compound 549, 6-(3-fluoro-5-isobutoxy-phenyl)-N-(1H-indol-4-ylsulfonyl)-2-(2,2,4-trimethylpyrrolidin-1-yl)pyridine-3-carboxamide]	–	+++ (“+++” means <3 uM)
CC(C)COc1cccc(-c2ccc(C(=O)NS(=O)(=O)c3ccn[nH]3)c(N3[C@H](C)CC[C@@H]3C)n2)c1 [Compound 710, 2-[(2S,5R)-2,5-dimethylpyrrolidin-1-yl]-6-(3-isobutoxyphenyl)-N-(1H-pyrazol-5-ylsulfonyl)pyridine-3-carboxamide]	–	+++ (“+++” means <3 uM)
CC(C)COc1cc(F)cc(-c2ccc(C(=O)NS(=O)(=O)c3cccc(N)n3)c(N3CCCCCC3)n2)c1 [Compound 418, N-[(6-amino-2-pyridyl)sulfonyl]-2-(azepan-1-yl)-6-(3-fluoro-5-isobutoxy-phenyl)pyridine-3-carboxamide]	–	+++ (“+++” means <3 uM)
